Assay results as given in patent publication US20230391729A1, “SUCCINATE SALTS OF N-(3-(4-(3-(DIISOBUTYLAMINO)PROPYL)PIPERAZIN-1-YL)PROPYL)-1H-BENZO[D]IMIDAZOL-2-AMINE, PREPARATION THEREOF AND USE OF THE SAME” (ALZPROTECT, priority 2020, published 2023).

How the values were obtained:
Format in all cases: physicochemical
[1] = Polymorphic form stability of di-sulphate salt upon drying at 50° C.
[2] = Storage stability of free base, di-sulphate salt and its aqueous solutions (background); conditions: for stability of aqueous solution: glass vials, no preservative
[3] = Water solubility of di-sulphate salt (background)
[4] = Solubility assessment in unbuffered water and pH buffers; conditions: thermodynamic from solid
Method: 100 μL of the appropriate buffer was added to form a slurry.

[5] = Dynamic vapour sorption (DVS)
Method: Approximately 10-20 mg of sample was placed into a mesh vapour sorption balance pan and loaded into an Intrinsic dynamic vapour sorption balance by Surface Measurement Systems. The sample was subjected to a ramping profile from 40-90% relative humidity (RH) at 10% increments, maintaining the sample at each step until a stable weight had been achieved (dm/dt 0.004%, minimum step length 30 minutes, maximum step length 500 minutes) at 25° C. After completion of the sorption cycle, the sample was dried using the same procedure to 0% RH and then a second sorption cycle back to 40% RH. Two cycles were performed. The weight change during the sorption/desorption cycles were plotted, allowing for the hygroscopic nature of the sample to be determined. XRPD analysis was then carried out on any solid retained.

[6] = 7-day stability tests of the salt (XRPD, HPLC purity); conditions: 50° C., 80° C. and ambient light
Method: 7-day stability tests were carried out as follows: 15 mg of salt was weighed into x3 2 mL vials. The vials were then placed at 40° C./75% RH, 80° C. and under ambient light; after 1 week, the solids were analysed by XRPD and HPLC purity (method A).

With `CC(C)CN(CCCN1CCN(CCCNc2nc3ccccc3[nH]2)CC1)CC(C)C.O=S(=O)(O)O.O=S(=O)(O)O` [Form A, N-(3-(4-(3-(diisobutylamino)propyl)piperazin-1-yl)propyl)-1H-benzo[d]imidazol-2-amine di-sulphate salt] the “crystalline form stability upon drying” value ([1]; di-sulphate salt) was “converts back to polymorphic Form B”.

For `CC(C)CN(CCCN1CCN(CCCNc2nc3ccccc3[nH]2)CC1)CC(C)C.O=S(=O)(O)O.O=S(=O)(O)O` [Form B, N-(3-(4-(3-(diisobutylamino)propyl)piperazin-1-yl)propyl)-1H-benzo[d]imidazol-2-amine di-sulphate], the “crystalline form stability upon drying” value ([1]; di-sulphate) was “partially loses its crystallinity”.

For `CC(C)CN(CCCN1CCN(CCCNc2nc3ccccc3[nH]2)CC1)CC(C)C.O=S(=O)(O)O.O=S(=O)(O)O` [di-sulphate salt, N-(3-(4-(3-(diisobutylamino)propyl)piperazin-1-yl)propyl)-1H-benzo[d]imidazol-2-amine di-sulphate], the “stability of aqueous solution” value ([2]; 5° C.) was “up to 18 months”, the “stability to regular storage conditions” value ([2]; 15-25° C.) was “at least 5 years” and the “stability of aqueous solution” value ([2]; 25° C./60% RH) was “up to 18 months”. The “stability of aqueous solution” value ([2]; 40° C./75% RH) was “up to 6 months” and the solubility [3] was > 100 mg/mL.

In the case of `CC(C)CN(CCCN1CCN(CCCNc2nc3ccccc3[nH]2)CC1)CC(C)C` [free base, N-(3-(4-(3-(diisobutylamino)propyl)piperazin-1-yl)propyl)-1H-benzo[d]imidazol-2-amine], the long term stability [2] is reported as “long term stability issues due to oxidative degradation”.

With `CC(C)CN(CCCN1CCN(CCCNc2nc3ccccc3[nH]2)CC1)CC(C)C.O=C(O)CCC(=O)O.O=C(O)CCC(=O)O.O=C(O)CCC(=O)O` [tris-succinate salt Form 2, N-(3-(4-(3-(diisobutylamino)propyl)piperazin-1-yl)propyl)-1H-benzo[d]imidazol-2-amine tris-succinate salt] the solubility ([4]; pH 1.2, simulated gastric fluid) was > 123 mg/mL, the solubility ([4]; pH 4.5, aqueous buffer) was > 92.4 mg/mL and the solubility ([4]; pH 6.8, aqueous buffer) was > 95.7 mg/mL. The “Post-DVS XRPD crystalline form” value ([5]; after DVS cycle) was “remain as tris-succinate salt Form 2”, the DVS weight uptake ([5]; at 70% RH, 25° C.) was “ca. +0.1 wt. %” and the “DVS water uptake in equivalents” value ([5]; up to 90% RH) was “approximately 4.3 equiv. water”. For the same molecule, the DVS weight increase ([5]; up to 90% RH, 25° C.) was “ca. +9.92 wt. %”, the hygroscopicity ([5]; up to 90% relative humidity) was “not hygroscopic” and the 7-day stability [6] was “stable”.
